Assay results: ChEMBL document CHEMBL2375285, “Novel (coumarin-3-yl)carbamates as selective MAO-B inhibitors: synthesis, in vitro and in vivo assays, theoretical evaluation of ADME properties and docking study” (Eur J Med Chem, 2013)
Calls of active or inactive are those of the source. The rule behind the calls is not given here.

What was measured:
[1] = test system: Mus musculus; assay: Toxicity in reserpine-treated CD1 mouse assessed as mortality at 100 mg/kg, ip measured for 24 to 48 hrs; format: organism-based; parameters: dose 100 mg/kg, route intraperitoneal; details: in vivo
[2] = test system: Mus musculus; assay: Potentiation of L-dopa/carbidopa activity in reserpine-treated CD1 mouse assessed as increase in motor activity at 100 mg/kg, ip administered 22 hrs post reserpine challenge followed by L-dopa/carbidopa adminstration at 30 mins measured after 1 hr relative to control; format: functional, organism-based; parameters: dose 100 mg/kg
[3] = test system: Mus musculus; assay: Potentiation of L-dopa/carbidopa activity in reserpine-treated CD1 mouse assessed as increase in motor activity at 10 mg/kg, ip administered 22 hrs post reserpine challenge followed by L-dopa/carbidopa adminstration at 30 mins measured after 1 hr relative to control; format: functional, organism-based; parameters: dose 10 mg/kg
[4] = test system: Mus musculus; assay: Potentiation of L-dopa/carbidopa activity in reserpine-treated CD1 mouse assessed as increase in velocity at 100 mg/kg, ip administered 22 hrs post reserpine challenge followed by L-dopa/carbidopa adminstration at 30 mins measured after 1 hr relative to control; format: functional, organism-based; parameters: dose 100 mg/kg
[5] = test system: Mus musculus; assay: Potentiation of L-dopa/carbidopa activity in reserpine-treated CD1 mouse assessed as increase in straightening at 100 mg/kg, ip administered 22 hrs post reserpine challenge followed by L-dopa/carbidopa adminstration at 30 mins measured after 1 hr relative to control; format: functional, organism-based; parameters: dose 100 mg/kg
[6] = test system: Mus musculus; assay: Neurotoxicity in CD1 mouse assessed as decrease in straightening at 10 mg/kg, ip measured for 1 hr relative to control; format: toxicity, organism-based; parameters: dose 10 mg/kg, route intraperitoneal; details: in vivo
[7] = test system: Mus musculus; assay: Potentiation of L-dopa/carbidopa activity in reserpine-treated CD1 mouse assessed as increase in movement at 100 mg/kg, ip administered 22 hrs post reserpine challenge followed by L-dopa/carbidopa adminstration at 30 mins measured after 1 hr relative to control; format: functional, organism-based; parameters: dose 100 mg/kg
[8] = test system: Mus musculus; assay: Neurotoxicity in CD1 mouse assessed as decrease in motor activity at 10 mg/kg, ip measured for 1 hr relative to control; format: toxicity, organism-based; parameters: dose 10 mg/kg, route intraperitoneal; details: in vivo
[9] = test system: Mus musculus; assay: Potentiation of L-dopa/carbidopa activity in reserpine-treated CD1 mouse assessed as increase in movement at 10 mg/kg, ip administered 22 hrs post reserpine challenge followed by L-dopa/carbidopa adminstration at 30 mins measured after 1 hr relative to control; format: functional, organism-based; parameters: dose 10 mg/kg
[10] = test system: Mus musculus; assay: Neurotoxicity in CD1 mouse assessed as decrease in movement at 10 mg/kg, ip measured for 1 hr relative to control; format: toxicity, organism-based; parameters: dose 10 mg/kg, route intraperitoneal; details: in vivo
[11] = test system: Mus musculus; assay: Neurotoxicity in CD1 mouse assessed as decrease in velocity at 10 mg/kg, ip measured for 1 hr relative to control; format: toxicity, organism-based; parameters: dose 10 mg/kg, route intraperitoneal; details: in vivo
[12] = test system: Mus musculus; assay: Potentiation of L-dopa/carbidopa activity in reserpine-treated CD1 mouse assessed as increase in velocity at 10 mg/kg, ip administered 22 hrs post reserpine challenge followed by L-dopa/carbidopa adminstration at 30 mins measured after 1 hr relative to control; format: functional, organism-based; parameters: dose 10 mg/kg
[13] = test system: Mus musculus; assay: Potentiation of L-dopa/carbidopa activity in reserpine-treated CD1 mouse assessed as increase in straightening at 10 mg/kg, ip administered 22 hrs post reserpine challenge followed by L-dopa/carbidopa adminstration at 30 mins measured after 1 hr relative to control; format: functional, organism-based; parameters: dose 10 mg/kg

Structure (SMILES) | Activity [1] | Activity [2] | Activity [3] | Activity [4] | Activity [5] | Activity [6] | Activity [7] | Activity [8] | Activity [9] | Activity [10] | Activity [11] | Activity [12] | Activity [13]
O=C(Nc1cc2ccccc2oc1=O)OCc1ccccc1 | Non-toxic | Active | Active | Active | Active | Non-toxic | Active | Non-toxic | Active | Non-toxic | Non-toxic |  | 
C#CCN(C)[C@H](C)Cc1ccccc1 [SELEGILINE] |  |  | Active |  |  | Toxic |  | Toxic | Active | Toxic | Toxic | Active | Active
